Laboratory results as given in patent publication US20100168228A1, “NOVEL CHEMOTHERAPEUTIC AGENTS AGAINST INFLAMMATION AND CANCER” (RELIANCE LIFE SCIENCES PVT. LTD., priority 2006, published 2010).

Legend:
[1] = system: COX-2; assay: COX-2 protein expression (ELISA); type: cell-based
Protocol: FIG. 6: Effect of CAMVE on TNF or LPS induced COX-2 expression. Cells were pretreated with indicated concentrations of CAMVE for 3 h and then stimulated with either TNF (0.1 nM) or SA-LPS (100 ng/ml) for 12 h. After harvesting the treated cells, the cellular lysates were checked for COX-2 protein expression by an enzyme immunoassay as described in the “Materials and Methods”.
Quantitative detection of Cox 2 protein expression by activated cells was done by an enzyme-linked immunosorbent sandwich assay using Zymed COX-2 ELISA kit. 1×10^7 cells were treated with different concentrations of CAMVE and stimulator and incubated at 37° C. for 12 hrs. […] The protein concentrations of the supernatants were measured by Bradford assay (Anal. Biochem. 72:248-254 (1976). 200 μg/100 μl of the protein was assayed per sample according to the kit protocol. Briefly, 100 μl of the sample and the standard were put in the pre antibody coated wells and incubated at 1 h at 37° C. After three washes 100 μl of the HRP conjugated antibody was added and incubated for 30 m is at 4° C. After washing, […] of the TMB substrate was added and incubated for 30 min at room temperature in dark. The reaction was stopped and the absorbance was read at 450 nm.

[2] = system: bcl-2; assay: bcl-2 mRNA, semi-quantitative RT-PCR, Jurkat; type: cell-based, human; conditions: 0-500 nM, 24 h
Protocol: FIG. 18: Effects of compound 27 on p53, Bax, bcl-2 mRNA levels in Jurkat cells. Expression of human p53, bax-α, bcl-2, was assayed by semi quantitative RT-PCR analysis with GAPDH as internal control. Cells were treated for 24 h with various doses of the compound (0, 50, 100 and 500 nM), then total RNA was extracted and submitted to RT-PCR.
RNA extraction: Total RNA was isolated using the standard TRIzol method (Gibco BRL). Briefly, 3×10^6 cells were treated with different concentrations of the compounds as indicated in the legends to Figures and after harvesting the cell pellet was resuspended in 1 ml of TRIzol with repeated pipetting. The homogenized sample was incubated at RT for 5 min to permit complete dissociation of the nucleoprotein complexes. […] of chloroform was added and the tubes were shaken vigorously for 15 sec by hand and then incubated at RT for 3 mins. The samples were then centrifuged at 10,000 RPM for 15 mins at 4° C. The aqueous phase was transferred to a fresh tube and 500 μl of Isopropyl alcohol was added, followed by incubation at RT for 10 mins. […]
Semi-quantitative reverse transcriptase (RT)-PCR: Changes in gene expression were verified by semi-quantitative RT-PCR using GAPDH as an internal normalization standard. 1 μg of total RNA (quantified by spectrophotometer) was used to reverse transcribe into cDNA. […]

[3] = system: Jurkat cells; assay: DNA fragmentation assay, Jurkat; type: cell-based, human; conditions: 24 h
Protocol: DNA fragmentation Assay: After treatment with the compounds for 24 h, cells were harvested and washed in PBS. The cell pellet was incubated with lysis buffer (10 mM Tris-HCl pH 7.5, 1 mM EDTA, 1% SDS and 80 ug/ml proteinase K) at 37° C. overnight. After extraction with phenol/chloroform, the DNA was precipitated with 100% ethanol and then dissolved in Tris-EDTA buffer (pH 8.0) with RNase A at 37° C. The DNA estimation was performed by taking absorbance at 260/280 nm, and DNA was resolved in a 1.8% agarose gel, stained with ethidium bromide and visualized under a UV transilluminator.

[4] = system: U937 cells; assay: Cell cycle analysis, U937; type: cell-based, human; conditions: 24 h
Protocol: FIG. 17: Differential effect of compound 27 on the cell cycle distribution in U937 cell line. Cells were treated with different concentration of the compound for 24 h and after staining with PI, cell cycle distribution was analyzed using Flow Cytometer. The data indicates the percentage of cells in each phase of the cell cycle.
Cell Cycle Analysis: Cells (log phase culture) were treated with vehicles alone (similar volumes of DMSO) or with the compound (various concentrations) to be tested for 24 h. Untreated cells were also included in this experiment for comparison. After treatments, the cells were harvested and washed with cold PBS. Cells were then resuspended in cold PBS (300 μl) and 100% chilled ethanol (700 μl), vortexed, and incubated at room temperature for 1 h. Samples were centrifuged at 200×g for 5 minutes and the supernatant was removed. A solution containing propidium iodide (100 μg/ml) and RNase A (1 mg/ml) was added to the samples and incubated for 1 h at room temperature. Samples were then transferred to 12×75 mm polystyrene tubes and analyzed on flow cytometer. Flow cytometry analyses were done on FACSCalibur (Becton Dickinson, San Jose, Calif.) and data were analyzed using CellQuest analysis software.

Row | Compound | COX-2 protein induction by compound alone ([1]; CAMVE alone) | TNF or LPS induced COX-2 protein expression ([1]; pretreated 3 h, TNF 0.1 nM or SA-LPS 100 ng/ml 12 h) | anti-apoptotic bcl-2 mRNA levels [2] | DNA fragmentation (agarose gel) [3] | sub G1 population ([4]; U937, 10 μM) | proportion of cells in the S phase ([4]; U937, 5 and 10 μM, increase from-to) | proportion of cells in the G2/M phase ([4]; U937, 100, 500, 5000, 10000 nM) | sub G1 population ([4]; U937, 100 and 500 nM)
1 | COC(=O)c1ccc(OC(=O)/C=C/c2ccc(O)c(O)c2)c(OC)c1 [compound 1, Methyl 4-{[(2E)-3-(3,4-dihydroxyphenyl)prop-2-enoyl]oxy}-3-methoxybenzoate] | did not show any induction of COX 2 protein | decreased with increasing concentration of CAMVE treatment | – | – | – | – | – | –
2 | COc1cc([C@@H]2Oc3c(OC)cc(/C=C/C(=O)O)cc3[C@H]2C(=O)O)ccc1O [compound 27, 5-[(E)-2-carboxyvinyl]-2β-(4-hydroxy-3-methoxyphenyl)-7-methoxy-2,3-dihydro-1-benzofuran-3α-carboxylic acid] | – | – | downregulated in a dose dependent manner | typical ladder pattern of internucleosomal fragmentation | ~30% | 26%-35% | no significant increase in the proportion of cells in the G2/M phase | no increase
